Like-named read-outs stand apart in the source and are kept apart here.
Legend:
E. coli mL308 225 = assay: In Vitro Anti-Bacterial Activity Assay (MIC), gram negative; format: cell-based; conditions: for MIC: Escherichia coli, ML308225, 18 h
S. aureus RN450 = assay: In Vitro Anti-Bacterial Activity Assay (MIC), gram positive; format: cell-based; conditions: for MIC: Staphylococcus aureus, RN450, 18 h
[1] = tested on: cultured murine cortical neurons; assay: Protection of Cultured Cortical Neurons from Excitotoxic Injury Induced by NMDA (NE Assay); format: cell-based, mice; conditions: NMDA 62.5 μM, LDH release 24 hours after starting the exposure
Method: Primary cortical astrocyte cultures were prepared from one-day old mice, as described in the literature procedure (Tikka, T M et al. J Immunol. 2001 Jun. 15; 166(12):7527-33). After decapitation, the forebrain cortices were collected, cleaned from meninges and, after mincing, dissociated by incubation in papain/Dnase solution followed by trituration. The dissociated cells were suspended in a culture medium consisting of Eagle's minimal essential medium (MEM) with 10% heat-inactivated fetal bovine serum and glutamine (2 mM) and plated in 75 cm^2 cell culture flasks. The medium was replaced with fresh culture medium at day 7. At confluence (day 12-15), the astrocytes were trypsinized and re-plated into 24-well culture vessels. On day 7-8, the neurons were cultured on top of these confluent astrocyte monolayers.
Cortical neuron suspensions were prepared from embryonic day 17 mice. The cortices were collected and meninges removed. The tissue was minced into small pieces and incubated in trypsin solution. The tissue was suspended using a pipette and after centrifugation resuspended and plated on top of astrocyte cultures at a density of 250,000 cells/well to 24-well culture vessel in Eagle's minimal essential medium (MEM, Earle's salts) supplemented with 20 mM glucose, 2 mM glutamine, 10% fetal bovine serum, and 10% heat-inactivated horse serum (HS). Medium was changed after 5 days to MEM containing 20 mM glucose, 2 mM glutamine, and 10% HS, as well as cytosine arabinoside (final concentration 10 μM) to inhibit cell division, and incubated for 2 days. Subsequently, cultures were fed twice weekly with MEM supplemented with 20 mM glucose, 2 mM glutamine and 10% HS, and used at day 12-15.
On the day of experiment, the culture medium was replaced with 1) MEM, 2) MEM containing the test tetracycline compounds. Positive control drug included 10 μM MK-801 (Sigma). […] As a control for total neuronal death, a 24 hour incubation with 500 μM NMDA was used (100% cell death control).
The cell viability was assessed by measuring lactate dehydrogenase (LDH) release 24 hours after starting the exposure. The LDH release to the culture medium was measured from cell-free medium using Sigma LDH reagent employing kinetic measurement of conversion of lactate to pyruvate using NADH as a cofactor. The rate of increase in absorbance at 340 nm was directly proportional to the activity of LDH in the sample, and was measured with a Labsystems Multiskan ELISA reader.

[2] = MIC class, Table 3, read-out: Antibiotic Activity Gram −
[3] = MIC class, Table 3, read-out: Antibiotic Activity Gram +
[4] = gram negative bacteria, read-out: Antibiotic Activity Gram − (MIC)
[5] = gram positive bacteria, read-out: Antibiotic Activity Gram + (MIC)

Structure (SMILES)	MIC (E. coli mL308 225; [2])	MIC (S. aureus RN450; [3])	neuroprotection (cell viability by LDH release) [1]	other results
CN(C)[C@@H]1C(O)=C(C(N)=O)C(=O)[C@@]2(O)C(O)=C3C(=O)c4c(O)c(C(C)(C)C)cc(CN)c4C[C@H]3C[C@@H]12 [IE]	> 4 µg/mL	> 4 µg/mL	good neuroprotection	–
CN(C)c1cc(NC(=O)Nc2ccc([N+](=O)[O-])cc2)c(O)c2c1C[C@H]1C[C@H]3[C@@H](N(C)C)C(O)=C(C(N)=O)C(=O)[C@@]3(O)C(O)=C1C2=O [CD]	> 4 µg/mL	< 4 µg/mL	good neuroprotection	–
CN(C)C1C(O)=C(C(N)=O)C(=O)[C@@]2(O)C(O)=C3C(=O)c4c(O)ccc(CNCC(C)(C)C)c4C[C@H]3C[C@@H]12 (stereo partly shown) [JD]	< 4 µg/mL	< 4 µg/mL	good neuroprotection	–
CN(C)[C@@H]1C(O)=C(C(N)=O)C(=O)[C@@]2(O)C(O)=C3C(=O)c4c(O)ccc(/C=C/C(=O)NC(C)(C)C)c4C[C@H]3C[C@@H]12 [CW]	> 4 µg/mL	< 4 µg/mL	good neuroprotection	–
CN(C)Cc1ccc(O)c2c1C[C@H]1C[C@H]3[C@@H](N(C)C)C(O)=C(C(N)=O)C(=O)[C@@]3(O)C(O)=C1C2=O [KF]	< 4 µg/mL	< 4 µg/mL	good neuroprotection	–
CN(C)[C@H]1C(O)=C(C(N)=O)C(=O)[C@@]2(O)C(O)=C3C(=O)c4c(O)c(CN)cc(-c5ccccc5)c4C[C@H]3C[C@@H]12 [JC]	> 4 µg/mL	> 4 µg/mL	good neuroprotection	–
CN(C)CCCOC(=O)/C=C/c1ccc(O)c2c1C[C@H]1C[C@H]3[C@H](N(C)C)C(O)=C(C(N)=O)C(=O)[C@@]3(O)C(O)=C1C2=O [BP]	< 4 µg/mL	< 4 µg/mL	good neuroprotection	–
C=C1c2cccc(O)c2C(=O)C2=C(O)[C@]3(O)C(=O)C(C(N)=O)=C(O)[C@@H](N(C)C)[C@@H]3[C@@H](O)[C@H]12 [C]	> 4 µg/mL	> 4 µg/mL	good neuroprotection	–
CCC(=O)O[C@H]1[C@H]2C(=C(O)[C@]3(O)C(=O)C(C(N)=O)=C(O)[C@@H](N(C)C)[C@H]13)C(=O)c1c(O)cccc1[C@@H]2C [M]	> 4 µg/mL	< 4 µg/mL	good neuroprotection	–
CN(C)c1cc(NC(=O)Nc2cccc(F)c2)c(O)c2c1C[C@H]1C[C@H]3[C@@H](N(C)C)C(O)=C(C(N)=O)C(=O)[C@@]3(O)C(O)=C1C2=O [H]	> 4 µg/mL	< 4 µg/mL	good neuroprotection	–
CN(C)c1cc(NCc2ccc3c(c2)OCO3)c(O)c2c1C[C@H]1C[C@H]3[C@H](N(C)C)C(O)=C(C(N)=O)C(=O)[C@@]3(O)C(O)=C1C2=O [EV]	> 4 µg/mL	> 4 µg/mL	good neuroprotection	–
CCCC(C)c1ccc(OC)c(-c2ccc(O)c3c2C[C@H]2C[C@H]4[C@H](N(C)C)C(O)=C(C(N)=O)C(=O)[C@@]4(O)C(O)=C2C3=O)c1 (stereo partly shown)	–	–	–	MIC (E. coli mL308 225; [4]): > 4 µg/mL; MIC (S. aureus RN450; [5]): < 4 µg/mL
CN(C)Cc1cc(N(C)C)c2c(c1O)C(=O)C1=C(O)[C@]3(O)C(=O)C(C(N)=O)=C(O)[C@@H](N(C)C)[C@@H]3C[C@@H]1C2	–	–	–	MIC (E. coli mL308 225; [4]): > 4 µg/mL; MIC (S. aureus RN450; [5]): < 4 µg/mL
CN(C)c1cc(CNCCc2ccccc2)c(O)c2c1C[C@H]1C[C@H]3C(N(C)C)C(O)=C(C(N)=O)C(=O)[C@@]3(O)C(O)=C1C2=O (stereo partly shown) [EH]	< 4 µg/mL	< 4 µg/mL	–	–
Cc1cc(C)cc(/C=C2\c3cccc(O)c3C(=O)C3=C(O)[C@]4(O)C(=O)C(C(N)=O)=C(O)[C@@H](N(C)C)[C@@H]4[C@@H](O)[C@@H]32)c1	–	–	–	MIC (E. coli mL308 225; MIC class, Table 3 (Continued), read-out: Gram− activity): < 4 µg/mL; MIC (S. aureus RN450; MIC class, Table 3 (Continued), read-out: Gram+ activity): < 4 µg/mL
CC(=O)NCc1cc(N(C)C)c2c(c1O)C(=O)C1=C(O)[C@]3(O)C(=O)C(C(N)=O)=C(O)C(N(C)C)[C@@H]3C[C@@H]1C2 (stereo partly shown) [DR]	> 4 µg/mL	< 4 µg/mL	–	–
COC(=O)c1cc(NC(=O)c2ccno2)cc(-c2ccc(O)c3c2C[C@H]2C[C@H]4[C@H](N(C)C)C(O)=C(C(N)=O)C(=O)[C@@]4(O)C(O)=C2C3=O)c1 [IK]	> 4 µg/mL	< 4 µg/mL	–	–
CN(C)c1cc(CNC(=O)c2ccno2)c(O)c2c1C[C@H]1C[C@H]3C(N(C)C)C(O)=C(C(N)=O)C(=O)[C@@]3(O)C(O)=C1C2=O (stereo partly shown) [MB]	> 4 µg/mL	< 4 µg/mL	–	–
CC(C)NCc1ccc(-c2ccc(O)c3c2C[C@H]2C[C@H]4C(N(C)C)C(O)=C(C(N)=O)C(=O)[C@@]4(O)C(O)=C2C3=O)cc1 (stereo partly shown) [GL]	< 4 µg/mL	< 4 µg/mL	–	–
CN(C)c1cc(NC(=O)Nc2cccc(F)c2)c(O)c2c1C[C@H]1C[C@H]3[C@H](N(C)C)C(O)=C(C(N)=O)C(=O)[C@@]3(O)C(O)=C1C2=O [DD]	> 4 µg/mL	< 4 µg/mL	–	–
CN(C)c1ccc(-c2cc(N)c(O)c3c2C[C@H]2C[C@H]4[C@@H](N(C)C)C(O)=C(C(N)=O)C(=O)[C@@]4(O)C(O)=C2C3=O)cc1 [ID]	> 4 µg/mL	< 4 µg/mL	–	–
CCNCC(=O)NCc1cc(N(C)C)c2c(c1O)C(=O)C1=C(O)[C@]3(O)C(=O)C(C(N)=O)=C(O)[C@@H](N(C)C)[C@@H]3C[C@@H]1C2	–	–	–	MIC (E. coli mL308 225; [4]): > 4 µg/mL; MIC (S. aureus RN450; [5]): > 4 µg/mL
CN(C)c1cc(NC(=O)Nc2cccc3ccccc23)c(O)c2c1C[C@H]1C[C@H]3[C@H](N(C)C)C(O)=C(C(N)=O)C(=O)[C@@]3(O)C(O)=C1C2=O [S]	> 4 µg/mL	< 4 µg/mL	–	–
CN(C)[C@@H]1C(O)=C(C(N)=O)C(=O)[C@@]2(O)C(O)=C3C(=O)c4c(O)ccc(C(=O)CN5CCCCC5)c4C[C@H]3C[C@@H]12	–	–	–	MIC (E. coli mL308 225; [4]): < 4 µg/mL; MIC (S. aureus RN450; [5]): < 4 µg/mL
CN(C)c1cc(-c2ccc(C(=O)O)cc2)c(O)c2c1C[C@H]1C[C@H]3[C@@H](N(C)C)C(O)=C(C(N)=O)C(=O)[C@@]3(O)C(O)=C1C2=O [AP]	> 4 µg/mL	> 4 µg/mL	–	–
CN(C)CC(=O)Nc1ccc2c(c1O)C(=O)C1=C(O)[C@]3(O)C(=O)C(C(N)=O)=C(O)[C@@H](N(C)C)[C@@H]3C[C@@H]1C2 [DW]	< 4 µg/mL	< 4 µg/mL	–	–
CCCCCC(=O)O[C@H]1[C@H]2C(=C(O)[C@]3(O)C(=O)C(C(N)=O)=C(O)[C@@H](N(C)C)[C@H]13)C(=O)c1c(O)cccc1[C@@H]2C [L]	> 4 µg/mL	< 4 µg/mL	–	–
COc1ccc(-c2ccc(O)c3c2C[C@H]2C[C@H]4[C@H](N(C)C)C(O)=C(C(N)=O)C(=O)[C@@]4(O)C(O)=C2C3=O)cc1 [drawing 3312]	–	–	–	Gram− activity (E. coli mL308 225; MIC class, Table 3 (Continued)): ** (compounds with MIC less than or equal to 4 μg/ml are indicated with **); Gram+ activity (S. aureus RN450; MIC class, Table 3 (Continued)): ** (compounds with MIC less than or equal to 4 μg/ml are indicated with **)
